Source: ChEMBL document CHEMBL5244231, “Total synthesis, chemical modification and structure-activity relationship of bufadienolides” (Eur J Med Chem, 2020)
pIC50, pKi: −log10 of the molar value. Blank lines part the entries; values can stand above or below the molecule they belong to.

Key:
Androgen receptor = biological target: T1, Androgen receptor (Homo sapiens, UniProt P10275); experiment: Binding affinity to AR (unknown origin) incubated for 4 hrs by fluorescence polarization assay
T1 sequence (P10275 whole entry): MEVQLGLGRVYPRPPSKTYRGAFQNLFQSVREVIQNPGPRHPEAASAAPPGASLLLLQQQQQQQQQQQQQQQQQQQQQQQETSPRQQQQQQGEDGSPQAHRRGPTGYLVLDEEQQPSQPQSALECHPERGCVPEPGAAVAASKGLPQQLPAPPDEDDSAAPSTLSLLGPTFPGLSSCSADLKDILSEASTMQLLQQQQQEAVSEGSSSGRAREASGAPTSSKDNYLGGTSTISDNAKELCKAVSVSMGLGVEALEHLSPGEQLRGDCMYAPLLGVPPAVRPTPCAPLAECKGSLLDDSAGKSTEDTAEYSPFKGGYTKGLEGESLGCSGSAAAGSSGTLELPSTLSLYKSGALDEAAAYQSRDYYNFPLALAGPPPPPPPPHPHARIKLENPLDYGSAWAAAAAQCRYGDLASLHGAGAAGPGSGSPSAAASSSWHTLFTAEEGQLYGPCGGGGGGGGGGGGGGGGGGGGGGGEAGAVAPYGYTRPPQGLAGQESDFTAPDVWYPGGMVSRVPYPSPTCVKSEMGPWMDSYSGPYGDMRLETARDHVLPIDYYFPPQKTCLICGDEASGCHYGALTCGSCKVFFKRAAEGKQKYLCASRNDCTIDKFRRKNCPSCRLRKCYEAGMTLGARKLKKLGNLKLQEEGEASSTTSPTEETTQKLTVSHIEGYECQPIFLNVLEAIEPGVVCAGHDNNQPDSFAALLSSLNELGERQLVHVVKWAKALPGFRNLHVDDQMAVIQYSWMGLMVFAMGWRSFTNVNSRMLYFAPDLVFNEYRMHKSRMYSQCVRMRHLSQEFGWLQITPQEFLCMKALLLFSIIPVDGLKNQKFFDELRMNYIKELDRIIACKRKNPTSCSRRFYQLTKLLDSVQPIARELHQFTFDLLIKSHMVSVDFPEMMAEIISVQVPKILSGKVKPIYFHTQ

PC-3 [1] = experiment: Antiproliferative activity against human PC-3 cells assessed as cell growth inhibition incubated for 48 hrs by MTT assay; format: functional, cell-based; details: PC-3, 48 h
LNCaP [2] = experiment: Antiproliferative activity against human LNCaP cells assessed as cell growth inhibition incubated for 48 hrs by MTT assay; format: functional, cell-based
[3] = biological target: Sodium/potassium-transporting ATPase; experiment: Inhibition of NA+/K+ ATPase (unknown origin) activity; format: protein-complex assay, Homo sapiens
MV4-11 [4] = experiment: Antiproliferative activity against human MV4-11 cells assessed as cell growth inhibition by MTT assay; format: functional, cell-based
NCI-H2228 = experiment: Antiproliferative activity against human NCI-H2228 cells assessed as cell growth inhibition by MTT assay; format: functional, cell-based
Jurkat = experiment: Antiproliferative activity against human Jurkat cells assessed as cell growth inhibition by MTT assay; format: functional, cell-based
MV4-11 [5] = experiment: Antitumor activity in human MV4-11 cells xenografted in mouse assessed as tumor growth inhibition at 4 mg/kg, IG administered every other day for 21 days relative to control; format: functional; details: MV4-11, po, 504 h, time 21 day
MCF7 = experiment: Antiproliferative activity against human MCF7 cells assessed as cell growth inhibition by MTT assay; format: functional, cell-based
HepG2 = experiment: Antiproliferative activity against human HepG2 cells assessed as cell growth inhibition by MTT assay; format: functional, cell-based
AGS = experiment: Antiproliferative activity against human AGS cells assessed as cell growth inhibition by MTT assay; format: functional, cell-based
HeLa [6] = experiment: Antiproliferative activity against human HeLa cells assessed as cell growth inhibition by MTT assay; format: functional, cell-based
MV4-11 [7] = experiment: Antitumor activity in human MV4-11 cells xenografted in mouse assessed as tumor growth inhibition at 2 mg/kg, iv administered every other day for 21 days relative to control; format: functional; details: MV4-11, 504 h, time 21 day
Daudi = experiment: Antiproliferative activity against human Daudi cells assessed as cell growth inhibition by MTT assay; format: functional, cell-based
HT-1080 = experiment: Antiproliferative activity against human HT-1080 cells assessed as cell growth inhibition by MTT assay; format: functional, cell-based
PC-3 [8] = experiment: Antiproliferative activity against human PC-3 cells assessed as cell growth inhibition by MTT assay; format: functional, cell-based
DU-145 = experiment: Antiproliferative activity against human DU-145 cells assessed as cell growth inhibition; format: functional, cell-based
[9] = biological target: Sodium/potassium-transporting ATPase; experiment: Inhibition of NA+/K+ ATPase (unknown origin) activity assessed as inhibition constant; format: protein-complex assay, Homo sapiens
PC-3 [10] = experiment: Antiproliferative activity against human PC-3 cells assessed as cell growth inhibition; format: functional, cell-based
LNCaP [11] = experiment: Antiproliferative activity against human LNCaP cells assessed as cell growth inhibition; format: functional, cell-based
HeLa [12] = experiment: Antiproliferative activity against human HeLa cells assessed as cell growth inhibition incubated for 72 hrs by MTT assay; format: functional, cell-based
A549 = experiment: Antiproliferative activity against human A549 cells assessed as cell growth inhibition incubated for 72 hrs by MTT assay; format: functional, cell-based; details: A549, 72 h

SMILES: C[C@]12CC[C@H](O)CC1CCC1=C3CC[C@H](c4ccc(=O)oc4)[C@@]3(C)CCC12 (some centres undefined)
pIC50 (Androgen receptor): < 4.30
pIC50 (PC-3 [1]): 4.79
pIC50 (LNCaP [2]): 5.17
pIC50 [3]: 5.25

pIC50 [3]: 4.45
SMILES: C[C@]12CC[C@H](O)C[C@H]1CC[C@H]1C3=CC[C@H](c4ccc(=S)oc4)[C@@]3(C)CC[C@@H]12

SMILES: C[C@]12CC[C@H](OC(=O)NC3CCNCC3)C[C@H]1CC[C@@H]1[C@@H]2CC[C@]2(C)[C@@H](c3ccc(=O)oc3)CC[C@]12O
pIC50 (MV4-11 [4]): 9.52
pIC50 (NCI-H2228): 9.52
pIC50 (Jurkat): 9.52
inhibition in vivo at 4 mg/kg (MV4-11 [5]): 100%
pIC50 (MCF7): 9.52
pIC50 (HepG2): 9.52
pIC50 (AGS): 9.52
pIC50 (HeLa [6]): 9.52
inhibition in vivo at 2 mg/kg (MV4-11 [7]): 100%
pIC50 (Daudi): 9.52
pIC50 (HT-1080): 9.52
pIC50 (PC-3 [8]): 9.52

SMILES: C[C@]12CC[C@H](O)CC1CCC1C3=CC[C@H](c4ccc(=O)oc4)[C@@]3(C)CCC12 (some centres undefined)
pIC50 (Androgen receptor): < 4.30

SMILES: C[C@]12CC[C@H](OC(=O)N3CCNCC3)C[C@H]1CC[C@@H]1[C@@H]2CC[C@]2(C)[C@@H](c3ccc(=O)oc3)CC[C@]12O
pIC50 (HeLa [6]): 9.11

pIC50 (DU-145): 5.00
pKi [9]: 4.15
pIC50 (PC-3 [10]): 5.00
pIC50 (LNCaP [11]): 5.00
SMILES: CN(C)C(=O)/C=C/C1=CO[C@]23CCC1[C@@]2(C)CC[C@H]1[C@H]3CC[C@@H]2C[C@@H](O)CC[C@@]21C

SMILES: C[C@]12CC[C@H](O)C[C@H]1CC[C@@H]1[C@@H]2CC[C@]2(C)[C@@H](c3ccc(=O)[nH]c3)CC[C@]12O
pIC50 (DU-145): 5.00
pKi [9]: 4.15
pIC50 (PC-3 [10]): 5.00
pIC50 (LNCaP [11]): 5.00

SMILES: C[C@]12CC[C@H](OC(=O)C3CCNCC3)C[C@H]1CC[C@@H]1[C@@H]2CC[C@]2(C)[C@@H](c3ccc(=O)oc3)CC[C@]12O
pIC50 (HeLa [12]): 9.12
pIC50 (A549): 9.47
